The values that follow come from patent US4200645A, “Pyrrole derivatives” (Beecham Group Limited, priority 1977, dated 1980).

Where two headings read alike, the source gives them in different places.

Data set [1] deals with cotton pellet induced granuloma. Briefly: cotton pellet induced granuloma test. Format: in vivo. An excerpt:
(§1) When tested on a conventional cotton pellet induced granuloma test the results shown hereafter were obtained. In these tests hydrocortisone (HC) was used as a positive control.

Data set [2] in a line: overt toxic effects during testing (Demonstration 2). Format: in vivo.
Description: as §1

In data set [3] the test system is phenylquinone induced writhing. Briefly: phenylquinone induced writhing test for analgesic activity. Format: in vivo. The conditions noted are these: oral, mice; for ED50: Mus musculus. The text has this: a. When tested on a conventional phenylquinone induced writhing test for analgesic activity, the compound of Example 1 and tolmetin produced the following ED50 values when administered orally to mice: […]

The test system of a further data set is stomachs. Briefly: gastric erosion test after oral dosing. Format: in vivo, rats. To be noted: for No. of Animals Showing Erosions: groups of 10 rats, 4 hour contact time. On the procedure:
b. Groups of 10 rats were starved overnight and then dosed orally with the test compound suspended in 0.7% methylcellulose. After a 4 hour contact time the animals were killed and the stomachs removed, inflated with 0.9% saline, cut open after 30 minutes and examined for erosions. The following results, expressed as the number of animals in each group showing damage, were obtained: […]

The test system of data set [4] is carrageenin induced oedema. As to the kind of experiment: carrageenin induced oedema test for anti-inflammatory activity. Format: in vivo. The conditions noted are these: Rattus norvegicus; per oral in rats; read-out: dose at which active (anti-inflammatory). On the procedure:
c. When tested on a conventional carrageenin induced oedema test foranti-inflammatory activity, the compound of Example 1 was classed as active at 10 mg/kg per oral in rats (as compared to about 5 mg/kg for tolmetin).

The subject of the next data set is rats. Briefly: toxicity observations during testing in rats. Format: in vivo. To be noted: up to 100 mg/kg per day for 6 days.
For data set [5] the following is noted: in vivo.
The conditions of data set [6]: J. Pharmacol. Exptl. Therap. 1973, 185, 127-138; cited from earlier work.

For the compound `CC(=O)CCc1ccc(C(=O)c2cccs2)n1C` [Example 4, 4-(1-Methyl-5-thien-2'-oyl-2-pyrryl)butan-2-one], the “Inhibition (cotton pellet granuloma)” value in data set [1] (10 mg/kg) is 24%. For the same compound, the drug-induced lethalities result in data set [2] (during testing) is on record as “no drug-induced lethalities were observed”. In data set [2] (in vivo), the body weight gain entry is reported as “no reduction in body weight gain was observed”, the overt toxic effects entry is reported as “not found to exhibit any overt toxic effects” and the thymus weight entry is “no change in thymus weight was observed”.
As for `Cc1ccc(C(=O)c2ccc(CCC3(C)OCCO3)n2C)cc1` [Example 7, 2-Methyl-2-[2-(1-methyl-5-p-toluoyl-2-pyrryl)ethyl]-1,3-dioxolane], the “Inhibition (cotton pellet granuloma)” value in data set [1] (50 mg/kg) stood at 43%. In data set [2] (during testing), the drug-induced lethalities result is on record as “no drug-induced lethalities were observed” and the overt toxic effects result is on record as “not found to exhibit any overt toxic effects”. Further, in data set [2] (in vivo), the body weight gain result is “no reduction in body weight gain was observed” and the thymus weight result was “no change in thymus weight was observed”.
For `CC(=O)CCc1ccc(C(=O)c2ccc(C)cc2)n1C` [Example 1, 4-(1-Methyl-5-p-toluoyl-2-pyrryl)butan-2-one], the ED50 worked out at 6.7 mg/kg in data set [3] (Test A, read-out: ED50, Test A) and 5.3 mg/kg in data set [3] (Test B, read-out: ED50, Test B). The “analgesic potency relative to tolmetin” value in data set [3] (from ED50 values) is reported as “about half as potent as tolmetin”. Moreover, the “No. of Animals Showing Erosions” value with stomachs (30 mg/kg oral) is 0 No. of Animals; in the data set on stomachs (90 mg/kg oral), 1 No. of Animals; with stomachs (270 mg/kg oral), 1 No. of Animals. In data set [4], the minimal effective dose came to 10 mg/kg. The drug-induced lethalities entry in the data set on rats is “No drug-induced lethalities have been observed”.
In the case of `Cc1ccc(C(=O)c2ccc(CC(=O)O)n2C)cc1` [Tolmetin], the ED50 worked out at 4.3 mg/kg in data set [3] (Test A, read-out: ED50, Test A) and 2.3 mg/kg in data set [3] (Test B, read-out: ED50, Test B). Further, the “No. of Animals Showing Erosions” value in the data set with stomachs (10 mg/kg oral) is on record as 2 No. of Animals; in the data set with stomachs (30 mg/kg oral) it was 6 No. of Animals; with stomachs (90 mg/kg oral) it was 10 No. of Animals. The “gastric irritancy relative to the compound of Example 1” value with stomachs (oral, rats, "probably at least") is reported as “at least 10 times”. The minimal effective dose in data set [4] is around 5 mg/kg. The gastric irritancy result in data set [5] is given as “causes gastric irritancy in test animals at doses not greatly exceeding the therapeutic dose”. Further, the anti-inflammatory activity entry in data set [6] is recorded as “possess anti-inflammatory activity”.
Take `CC(=O)OC(C)CCc1ccc(C(=O)c2ccc(C)cc2)n1C` (centres unmarked) [Example 6, 2-Acetoxy-4-(1-methyl-5-p-toluoyl-2-pyrryl)butane]: in data set [1] (50 mg/kg), the “Inhibition (cotton pellet granuloma)” value stood at 34%. Further, in data set [2] (during testing), the drug-induced lethalities entry was “no drug-induced lethalities were observed” and the overt toxic effects result is “not found to exhibit any overt toxic effects”. In addition, in data set [2] (in vivo), the body weight gain entry was “no reduction in body weight gain was observed” and the thymus weight entry was “no change in thymus weight was observed”.
Take `C[C@]12CCC(=O)C=C1CC[C@@H]1[C@@H]2[C@@H](O)C[C@@]2(C)[C@H]1CC[C@]2(O)C(=O)CO` [HC, hydrocortisone, reference compound]: the “Inhibition (cotton pellet granuloma)” value in data set [1] (10 mg/kg) is recorded as 43%.
With `CC(=O)CCc1ccc(C(=O)c2ccc(Cl)cc2)n1C` [Example 3, 4-(1-Methyl-5-p-chlorobenzoyl-2-pyrryl)butan-2-one], the “Inhibition (cotton pellet granuloma)” value in data set [1] (10 mg/kg) is reported as 42%. Also, in data set [2] (during testing), the drug-induced lethalities entry is on record as “no drug-induced lethalities were observed” and the overt toxic effects entry is listed as “not found to exhibit any overt toxic effects”. Besides, in data set [2] (in vivo), the body weight gain entry is “no reduction in body weight gain was observed” and the thymus weight entry is on record as “no change in thymus weight was observed”.
